Measured values as given in ChEMBL document CHEMBL1127329, “6-(1H-imidazol-1-yl)-7-nitro-2,3(1H,4H)-quinoxalinedione hydrochloride (YM90K) and related compounds: structure-activity relationships for the AMPA-type non-NMDA receptor” (J Med Chem, 1994).

Columns and labels:
[1] = target: Glutamate receptor ionotropic, AMPA (Rattus norvegicus, UniProt P19490+P19491+P19492+P19493)
Description: Binding affinity against AMPA receptor in rat brain membrane using [3H]-AMPA as radioligand

[2] = target: T1, Glutamate receptor ionotropic, AMPA (Rattus norvegicus) (UniProt P19491+P19492+P19493+P19490); test: Ability to inhibit [3H]AMPA binding to AMPA receptor in rat whole brain at 1 uM concentration
[3] = target: T1, Glutamate receptor ionotropic, AMPA (Rattus norvegicus); test: Ability to inhibit [3H]AMPA binding to AMPA receptor in rat whole brain at 100 uM concentration; format: tissue-based
[4] = target: Glutamate receptor ionotropic, kainate; test: Binding affinity against kainate receptor in rat brain membrane using [3H]kainate as radioligand; format: cell membranes
Glutamate NMDA receptor [5] = test: Binding affinity of compound against NMDA receptor binding site in rat brain membrane using [3H]glutamate as radioligand; format: cell membranes
Glutamate NMDA receptor [6] = test: Binding affinity of compound against strychnine-insensitive glycine site on NMDA receptor in rat brain membrane using [3H]glycine as radioligand; format: cell membranes

| Ki [1] | Structure (SMILES) | further results |
| --- | --- | --- |
| 1400 nM | O=[N+]([O-])c1cc2nc(O)c(O)nc2cc1-n1cccn1 | – |
| 1600 nM | Oc1nc2ccc(-n3ccnc3)cc2nc1O | – |
| – | Oc1nc2ccc(-n3ccnc3)c(C(F)(F)F)c2nc1O | inhibition [2]: 10% |
| 180 nM | Cc1cn(-c2cc3nc(O)c(O)nc3cc2[N+](=O)[O-])cn1 | – |
| 2000 nM | O=[N+]([O-])c1ccc2nc(O)c(O)nc2c1 | – |
| 100 nM | O=[N+]([O-])c1cn(-c2cc3nc(O)c(O)nc3cc2[N+](=O)[O-])cn1 | – |
| – | Cc1ccc2nc(O)c(O)nc2c1 | inhibition [3]: 28% |
| 4800 nM | O=[N+]([O-])c1cc2nc(O)c(O)nc2cc1-n1cnc2c1CCCC2 | – |
| 5000 nM | N#Cc1ccc2nc(O)c(O)nc2c1 | – |
| – | N#Cc1cc2c(cc1[N+](=O)[O-])=NC(=O)C(=O)N=2 | Ki [4]: 1800 nM; Ki (Glutamate NMDA receptor [5]): 25000 nM; Ki (Glutamate NMDA receptor [6]): 5600 nM |
| 84 nM | O=c1[nH]c2cc(-n3ccnc3)c([N+](=O)[O-])cc2[nH]c1=O [YM-90K] | Ki [4]: 2200 nM; Ki (Glutamate NMDA receptor [5]): > 100000 nM; Ki (Glutamate NMDA receptor [6]): 37000 nM |
| – | Cc1cc2nc(O)c(O)nc2cc1-n1ccnc1 | inhibition [2]: 14% |
| – | Oc1nc2ccccc2nc1O | inhibition [3]: 24% |
| 200 nM | N#Cc1cc2nc(O)c(O)nc2cc1-n1ccnc1 | – |
| – | NS(=O)(=O)c1cccc2c1c([N+](=O)[O-])cc1nc(O)c(O)nc12 [NBQX] | Ki (Glutamate NMDA receptor [5]): > 100000 nM; Ki (Glutamate NMDA receptor [6]): > 100000 nM |
| 430 nM | Cc1nccn1-c1cc2nc(O)c(O)nc2cc1[N+](=O)[O-] | – |
| – | CC(=O)c1cc2nc(O)c(O)nc2cc1-n1ccnc1 | inhibition [2]: 36% |
| 390 nM | CCc1nccn1-c1cc2nc(O)c(O)nc2cc1[N+](=O)[O-] | – |
| – | Oc1nc2cc(F)c(-n3ccnc3)cc2nc1O | inhibition [2]: 14% |
| 200 nM | Oc1nc2cc(-n3ccnc3)c(C(F)(F)F)cc2nc1O | – |
| 1300 nM | O=[N+]([O-])c1cc2nc(O)c(O)nc2cc1-n1cnc2ccccc21 | – |
| 1900 nM | O=[N+]([O-])c1cc(-n2ccnc2)cc2nc(O)c(O)nc12 | – |
| – | Nc1cc2nc(O)c(O)nc2cc1-n1ccnc1 | inhibition [2]: 16% |

| Structure (SMILES) | Ki [1] | further results |
| --- | --- | --- |
| O=[N+]([O-])c1cc2nc(O)c(O)nc2cc1-c1c[nH]cn1 | 690 nM | – |
| O=[N+]([O-])c1cc2nc(O)c(O)nc2cc1-n1cnc(-c2ccccc2)c1 | 230 nM | – |
| O=[N+]([O-])c1cc2nc(O)c(O)nc2cc1-c1cccnc1 | 620 nM | – |
| Oc1nc2cc(-n3ccnc3)c(-n3ccnc3)cc2nc1O | 820 nM | – |
| O=[N+]([O-])c1cc2nc(O)c(O)nc2cc1-n1cncn1 | 240 nM | – |
